Patent US4698352A, “4-oxo-1,4-dihydronicotinic acid derivatives, salts thereof, and antibacterial agents containing the same” (Toyama Chemical Co., Ltd., priority 1982, dated 1987)
In brackets after ≈: the same amount, converted by molar mass. Where two headings read alike, the source gives them in different places.

What was measured:
Test in all cases: Antibacterial activity (MIC), agar dilution
Format in all cases: cell-based
St. aureus F-137* = conditions: Staphylococcus aureus, 20 h
Source text: (§1) The amount of bacteria inoculated was 10^4 cells per plate (10^6 cells per ml).
(§2) * Penicillinase-producing bacteria

Kl. pneumoniae Y-4* = conditions: Klebsiella pneumoniae, 20 h, Kl. pneumoniae Y-4, penicillinase-producing; 10^6 cells per ml; read-out: MIC
Source text: as §1, §2

E. coli TK-3* = conditions: Escherichia coli, 20 h, E. coli TK-3, penicillinase-producing; 10^6 cells per ml; read-out: MIC
Source text: as §1, §2

Ps. aeruginosa GN3379* = conditions: Pseudomonas aeruginosa, Ps. aeruginosa GN3379, penicillinase-producing, 10^6 cells per ml
Source text: as §1, §2

Pro. vulgaris GN76** = conditions: Proteus vulgaris, 20 h; Pro. vulgaris GN76, cephalospolinase-producing; 10^6 cells per ml; read-out: MIC
Source text: as §1
(§3) ** Cephalospolinase-producing bacteria

Ps. aeruginosa GN918** = conditions: Pseudomonas aeruginosa, Ps. aeruginosa GN918, cephalospolinase-producing, 10^6 cells per ml
Source text: as §1, §3

E. coli GN5482** = conditions: Escherichia coli, 20 h; E. coli GN5482, cephalospolinase-producing; 10^6 cells per ml; read-out: MIC
Source text: as §1, §3

Kl. pneumoniae Y-41 = conditions: Klebsiella pneumoniae, Y41, 10^6 cells per ml, 37° C., 20 hours, read-out: MIC
Source text: as §1

Ps. aeruginosa IFO3445 = conditions: Pseudomonas aeruginosa
Source text: as §1

Pro. mirabilis T-111 = conditions: Proteus mirabilis, 37° C.
Source text: as §1

Aci. antitratus A-6 = conditions: 20 h, Aci. antitratus A-6; 10^6 cells per ml; 37° C., 20 hours; read-out: MIC
Source text: as §1

Pro. vulgaris GN3027 = conditions: Proteus vulgaris, GN3027, 20 h
Source text: as §1

E. coli TK-111 = conditions: Escherichia coli, TK111, 20 h, E. coli TK-111; 10^6 cells per ml; 37° C., 20 hours; read-out: MIC
Source text: as §1

Ps. aeruginosa S-68 = conditions: Pseudomonas aeruginosa
Source text: as §1

Ent. cloacae IID977 = conditions: Enterobacter cloacae, IID977, 20 h
Source text: as §1

Kl. pneumoniae Y-50 = conditions: Klebsiella pneumoniae, Y50, 20 h, 10^6 cells per ml, 37° C., read-out: MIC
Source text: as §1

E. coli NIHJ JC-2 = conditions: Escherichia coli, NIHJJC2, 20 h
Source text: as §1

Pro. morganii T-216 = conditions: Morganella morganii, 37° C.
Source text: as §1

St. aureus FDA209P = conditions: Staphylococcus aureus, FDA209P, 20 h
Source text: as §1

[1] = St. aureus F-137, penicillinase-producing, 10^6 cells per ml, read-out: MIC
[2] = Ps. aeruginosa IFO3445, 10^6 cells per ml, 37° C., 20 hours, read-out: MIC
[3] = S68, Ps. aeruginosa S-68, 10^6 cells per ml, 37° C., 20 hours, read-out: MIC
[4] = Ent. cloacae IID977, 10^6 cells per ml, 37° C., 20 hours, read-out: MIC
[5] = St. aureus FDA209P, 10^6 cells per ml, 37° C., 20 hours, read-out: MIC
[6] = Pro. vulgaris GN3027, 10^6 cells per ml, 37° C., 20 hours, read-out: MIC
[7] = E. coli NIHJ JC-2, 10^6 cells per ml, 37° C., 20 hours, read-out: MIC
[8] = T216, 10^6 cells per ml, 20 hours, read-out: MIC
[9] = T111, 10^6 cells per ml, 20 hours, read-out: MIC

SMILES	MIC (St. aureus F-137*; [1])	MIC (Kl. pneumoniae Y-4*)	MIC (E. coli TK-3*)	MIC (Ps. aeruginosa GN3379*; 20 h, read-out: MIC)	MIC (Pro. vulgaris GN76**)	MIC (E. coli GN5482**)	MIC (Kl. pneumoniae Y-41)	MIC (Ps. aeruginosa IFO3445; [2])	MIC (Pro. mirabilis T-111; T111, 20 h, 10^6 cells per ml)	MIC (Aci. antitratus A-6)	MIC (E. coli TK-111)	MIC (Ps. aeruginosa S-68; [3])	MIC (Ent. cloacae IID977; [4])	MIC (Kl. pneumoniae Y-50)	MIC (St. aureus FDA209P; [5])	MIC (Ps. aeruginosa GN3379*; GN3379, 20 h)	MIC (Ps. aeruginosa GN918**; 20 h, read-out: MIC)	MIC (Pro. vulgaris GN3027; [6])	MIC (E. coli NIHJ JC-2; [7])	MIC (Pro. morganii T-216; [8])	further results
O=C(O)c1cn(-c2ccc(O)cc2F)c(-c2ccc(N3CCOCC3)cc2)cc1=O	0.78 µg/mL (≈ 1.9 µM)	25 µg/mL (≈ 60.9 µM)	3.13 µg/mL (≈ 7.63 µM)	50 µg/mL (≈ 122 µM)	6.25 µg/mL (≈ 15.2 µM)	0.39 µg/mL (≈ 0.95 µM)	12.5 µg/mL (≈ 30.5 µM)	100 µg/mL (≈ 244 µM)	12.5 µg/mL (≈ 30.5 µM)	6.25 µg/mL (≈ 15.2 µM)	0.39 µg/mL (≈ 0.95 µM)	25 µg/mL (≈ 60.9 µM)	6.25 µg/mL (≈ 15.2 µM)	1.56 µg/mL (≈ 3.8 µM)	0.78 µg/mL (≈ 1.9 µM)	–	–	–	–	–	MIC (Ps. aeruginosa GN918**; GN918, 20 h): 12.5 µg/mL (≈ 30.5 µM); MIC (Pro. vulgaris GN3027): 1.56 µg/mL (≈ 3.8 µM); MIC (E. coli NIHJ JC-2): 1.56 µg/mL (≈ 3.8 µM); MIC (Pro. morganii T-216; T216, 20 h, 10^6 cells per ml): 12.5 µg/mL (≈ 30.5 µM)
CC(=O)Oc1ccc(-n2cc(C(=O)O)c(=O)cc2-c2ccc(N(C)C)cc2)cc1	0.1 µg/mL (≈ 0.255 µM)	3.13 µg/mL (≈ 7.98 µM)	0.39 µg/mL (≈ 0.994 µM)	–	0.39 µg/mL (≈ 0.994 µM)	≤ 0.05 µg/mL	1.56 µg/mL (≈ 3.98 µM)	–	3.13 µg/mL (≈ 7.98 µM)	0.2 µg/mL (≈ 0.51 µM)	≤ 0.05 µg/mL	–	–	0.39 µg/mL (≈ 0.994 µM)	0.1 µg/mL (≈ 0.255 µM)	3.13 µg/mL (≈ 7.98 µM)	0.78 µg/mL (≈ 1.99 µM)	0.1 µg/mL (≈ 0.255 µM)	0.2 µg/mL (≈ 0.51 µM)	0.78 µg/mL (≈ 1.99 µM)	MIC (Ps. aeruginosa IFO3445; IFO3445, 20 h): 3.13 µg/mL (≈ 7.98 µM); MIC (Ps. aeruginosa S-68; S68, 20 h): 3.13 µg/mL (≈ 7.98 µM); MIC (Ent. cloacae IID977): 1.56 µg/mL (≈ 3.98 µM)
O=C(O)c1cn(-c2ccc(O)cc2)c(-c2ccc(-c3ccccc3)cc2)cc1=O	≤ 0.05 µg/mL	12.5 µg/mL (≈ 32.6 µM)	0.78 µg/mL (≈ 2.03 µM)	100 µg/mL (≈ 261 µM)	0.78 µg/mL (≈ 2.03 µM)	≤ 0.05 µg/mL	12.5 µg/mL (≈ 32.6 µM)	25 µg/mL (≈ 65.2 µM)	–	0.39 µg/mL (≈ 1.02 µM)	0.1 µg/mL (≈ 0.261 µM)	–	3.13 µg/mL (≈ 8.16 µM)	0.39 µg/mL (≈ 1.02 µM)	≤ 0.05 µg/mL	–	1.56 µg/mL (≈ 4.07 µM)	0.2 µg/mL (≈ 0.522 µM)	0.39 µg/mL (≈ 1.02 µM)	1.56 µg/mL (≈ 4.07 µM)	MIC (Pro. mirabilis T-111; [9]): 3.13 µg/mL (≈ 8.16 µM); MIC (Ps. aeruginosa S-68; S68, 20 h): 12.5 µg/mL (≈ 32.6 µM)
Cc1ccc(-c2cc(=O)c(C(=O)O)cn2-c2ccc(O)cc2)s1	0.2 µg/mL (≈ 0.611 µM)	1.56 µg/mL (≈ 4.77 µM)	0.2 µg/mL (≈ 0.611 µM)	3.13 µg/mL (≈ 9.56 µM)	0.2 µg/mL (≈ 0.611 µM)	≤ 0.05 µg/mL	0.78 µg/mL (≈ 2.38 µM)	3.13 µg/mL (≈ 9.56 µM)	–	0.39 µg/mL (≈ 1.19 µM)	≤ 0.05 µg/mL	3.13 µg/mL (≈ 9.56 µM)	0.78 µg/mL (≈ 2.38 µM)	0.2 µg/mL (≈ 0.611 µM)	0.2 µg/mL (≈ 0.611 µM)	–	0.78 µg/mL (≈ 2.38 µM)	≤ 0.05 µg/mL	0.2 µg/mL (≈ 0.611 µM)	0.39 µg/mL (≈ 1.19 µM)	MIC (Pro. mirabilis T-111; [9]): 3.13 µg/mL (≈ 9.56 µM)
O=C(O)c1cn(-c2ccc(O)cc2)c(-c2ccc3cccnc3c2)cc1=O	–	12.5 µg/mL (≈ 34.9 µM)	0.39 µg/mL (≈ 1.09 µM)	–	3.13 µg/mL (≈ 8.73 µM)	≤ 0.05 µg/mL	6.25 µg/mL (≈ 17.4 µM)	25 µg/mL (≈ 69.8 µM)	–	25 µg/mL (≈ 69.8 µM)	0.39 µg/mL (≈ 1.09 µM)	–	3.13 µg/mL (≈ 8.73 µM)	1.56 µg/mL (≈ 4.35 µM)	–	12.5 µg/mL (≈ 34.9 µM)	3.13 µg/mL (≈ 8.73 µM)	0.39 µg/mL (≈ 1.09 µM)	0.78 µg/mL (≈ 2.18 µM)	–	MIC (St. aureus F-137*): 1.56 µg/mL (≈ 4.35 µM); MIC (Pro. mirabilis T-111; [9]): 25 µg/mL (≈ 69.8 µM); MIC (Ps. aeruginosa S-68; S68, 20 h): 12.5 µg/mL (≈ 34.9 µM); MIC (Pro. morganii T-216; T216, 20 h, 10^6 cells per ml): 6.25 µg/mL (≈ 17.4 µM); MIC (St. aureus FDA209P): 1.56 µg/mL (≈ 4.35 µM)
CN(C)c1ccc(-c2cc(=O)c(C(=O)O)cn2-c2ccc(O)c(F)c2)cc1	0.39 µg/mL (≈ 1.06 µM)	3.13 µg/mL (≈ 8.5 µM)	0.78 µg/mL (≈ 2.12 µM)	–	0.78 µg/mL (≈ 2.12 µM)	≤ 0.05 µg/mL	3.13 µg/mL (≈ 8.5 µM)	–	3.13 µg/mL (≈ 8.5 µM)	0.39 µg/mL (≈ 1.06 µM)	0.1 µg/mL (≈ 0.271 µM)	1.56 µg/mL (≈ 4.23 µM)	1.56 µg/mL (≈ 4.23 µM)	0.39 µg/mL (≈ 1.06 µM)	0.39 µg/mL (≈ 1.06 µM)	3.13 µg/mL (≈ 8.5 µM)	12.5 µg/mL (≈ 33.9 µM)	0.2 µg/mL (≈ 0.543 µM)	0.39 µg/mL (≈ 1.06 µM)	1.56 µg/mL (≈ 4.23 µM)	MIC (Ps. aeruginosa IFO3445; IFO3445, 20 h): 3.13 µg/mL (≈ 8.5 µM)
